Reference: article PMC12864978, “Covalent modification of a glutamic acid inspired by HaloTag technology” (Nature Communications, 2026)

Columns and labels:
Test in all cases: In-lysate thermal proteome profiling (TPP)
[1] = target: Jurkat cell lysate proteome (Homo sapiens, UniProt P62318)
Description: (§1) Jurkat cells were grown to a density of 1.0–2.5 × 10⁶ cells/ml. A 100 ml aliquot of the suspension was divided equally into two Falcon tubes and chilled on ice for 2 min. Cells were pelleted by centrifugation at 350×g for 3 min at room temperature. After discarding the supernatant, the combined pellet was resuspended in 25 ml of ice-cold PBS buffer. The washing step—centrifugation at 350×g for 2 min at room temperature, followed by supernatant removal—was further repeated twice. Following the final wash, the cell pellet was resuspended in 1.5 ml of PBS containing 0.4% (v/v) NP40 alternative and flash-frozen in liquid nitrogen. […] The resulting lysate was separated by ultracentrifugation at 100,000×g for 20 min at 4 °C (Beckman Coulter Optima MAX-XP, MLA-80 rotor). The supernatant was carefully collected, snap-frozen in liquid nitrogen, and stored at −80 °C for subsequent analysis.
(§2) Protein concentration was quantified using the Bradford protein assay. […] Following incubation, each aliquot was further subdivided into nine 120 µl portions in PCR tubes. […] For analysis, 75 µl of each supernatant was allocated for mass spectrometry-based thermal protein profiling (TPP), while the remaining 25 µl was used for immunoblotting to assess PDEδ levels.
(§3) For mass spectrometric analysis, sample processing was further proceeded with reduction and alkylation, followed by acetone precipitation and tryptic digestion. Each digested aliquot was then labelled with isobaric TMT reagents (Thermo Fisher Scientific, A52047) corresponding to its specific temperature condition from the thermal shift assay.
(§4) Proteins were considered as stabilised or destabilised when, in all three replicates,
(§5) tailed p-values were determined by applying paired t-test comparing AUC of melting curves
(§6) between DMSO-treated and compound-treated conditions, OR
(§7) least ± 10 % (same direction) compared to the DMSO control.

[2] = target: T1, Jurkat cell lysate proteome (Homo sapiens, UniProt P22087)
T1 sequence (P22087 1-321): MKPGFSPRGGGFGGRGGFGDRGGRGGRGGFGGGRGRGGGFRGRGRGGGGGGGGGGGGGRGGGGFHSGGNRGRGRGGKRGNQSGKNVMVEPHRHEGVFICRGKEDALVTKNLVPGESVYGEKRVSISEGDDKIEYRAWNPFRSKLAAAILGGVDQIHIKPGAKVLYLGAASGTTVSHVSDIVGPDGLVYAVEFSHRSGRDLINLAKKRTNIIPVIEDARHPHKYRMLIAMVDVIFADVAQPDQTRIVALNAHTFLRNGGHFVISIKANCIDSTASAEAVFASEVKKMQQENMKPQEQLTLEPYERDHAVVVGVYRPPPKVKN
Description: as §1, §2, §3, §4, §5, §6, §7

[3] = target: Jurkat cell lysate proteome (Homo sapiens, UniProt P37802)
Description: as §1, §2, §3, §4, §5, §6, §7

[4] = target: Jurkat cell lysate proteome (Homo sapiens, UniProt P07195)
Description: as §1, §2, §3, §4, §5, §6, §7

[5] = target: Jurkat cell lysate proteome (Homo sapiens, UniProt Q14108)
Description: as §1, §2, §3, §4, §5, §6, §7

[6] = target: Jurkat cell lysate proteome (Homo sapiens, UniProt O43924); settings: 10 µM, 15 min
Description: as §1, §2, §3, §4, §5, §6, §7

[7] = target: T2, Jurkat cell lysate proteome (Homo sapiens, UniProt Q16854)
T2 sequence (Q16854 40-277): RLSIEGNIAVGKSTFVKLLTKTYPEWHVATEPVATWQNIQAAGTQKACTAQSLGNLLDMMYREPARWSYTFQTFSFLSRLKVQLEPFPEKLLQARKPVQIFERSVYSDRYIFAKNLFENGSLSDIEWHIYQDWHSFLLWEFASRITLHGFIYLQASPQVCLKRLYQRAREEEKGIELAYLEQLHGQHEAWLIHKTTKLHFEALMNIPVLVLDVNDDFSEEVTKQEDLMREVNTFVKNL
Description: as §1, §2, §3, §4, §5, §6, §7

[8] = target: Jurkat cell lysate proteome (Homo sapiens, UniProt P49773)
Description: as §1, §2, §3, §4, §5, §6, §7

[9] = target: T3, Jurkat cell lysate proteome (Homo sapiens, UniProt Q99523)
T3 sequence (Q99523 78-831): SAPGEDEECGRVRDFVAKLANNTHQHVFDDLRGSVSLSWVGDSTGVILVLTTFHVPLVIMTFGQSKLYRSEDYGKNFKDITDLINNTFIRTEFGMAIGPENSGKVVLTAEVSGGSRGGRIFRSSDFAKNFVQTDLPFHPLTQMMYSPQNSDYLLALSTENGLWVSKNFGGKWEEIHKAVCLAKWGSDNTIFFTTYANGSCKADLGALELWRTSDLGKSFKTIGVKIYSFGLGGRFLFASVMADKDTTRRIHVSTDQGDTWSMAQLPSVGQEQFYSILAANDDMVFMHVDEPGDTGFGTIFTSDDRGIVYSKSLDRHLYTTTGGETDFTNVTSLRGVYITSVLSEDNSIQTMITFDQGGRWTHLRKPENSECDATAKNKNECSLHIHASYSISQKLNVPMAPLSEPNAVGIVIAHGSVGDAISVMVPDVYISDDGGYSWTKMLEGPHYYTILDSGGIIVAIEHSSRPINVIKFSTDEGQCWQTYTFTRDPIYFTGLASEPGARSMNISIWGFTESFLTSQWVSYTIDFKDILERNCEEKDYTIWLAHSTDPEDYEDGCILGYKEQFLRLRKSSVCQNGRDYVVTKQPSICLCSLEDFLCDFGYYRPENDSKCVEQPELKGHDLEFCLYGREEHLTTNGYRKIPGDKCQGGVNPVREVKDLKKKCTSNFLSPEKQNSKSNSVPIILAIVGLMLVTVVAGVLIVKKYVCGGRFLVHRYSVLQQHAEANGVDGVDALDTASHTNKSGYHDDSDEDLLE
Description: as §1, §2, §3, §4, §5, §6, §7

[10] = target: Jurkat cell lysate proteome (Homo sapiens, UniProt P62899)
Description: as §1, §2, §3, §4, §5, §6, §7

[11] = target: T4, Jurkat cell lysate proteome (Homo sapiens, UniProt P24666)
T4 sequence (P24666 1-158): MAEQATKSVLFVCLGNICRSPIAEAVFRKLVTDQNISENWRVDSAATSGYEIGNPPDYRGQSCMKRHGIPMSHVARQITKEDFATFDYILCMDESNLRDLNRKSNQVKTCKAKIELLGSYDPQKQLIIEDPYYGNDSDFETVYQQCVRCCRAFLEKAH
Description: as §1, §2, §3, §4, §5, §6, §7

Jurkat cell lysate proteome (Homo sapiens, UniProt P07195), sequence (P07195 whole entry): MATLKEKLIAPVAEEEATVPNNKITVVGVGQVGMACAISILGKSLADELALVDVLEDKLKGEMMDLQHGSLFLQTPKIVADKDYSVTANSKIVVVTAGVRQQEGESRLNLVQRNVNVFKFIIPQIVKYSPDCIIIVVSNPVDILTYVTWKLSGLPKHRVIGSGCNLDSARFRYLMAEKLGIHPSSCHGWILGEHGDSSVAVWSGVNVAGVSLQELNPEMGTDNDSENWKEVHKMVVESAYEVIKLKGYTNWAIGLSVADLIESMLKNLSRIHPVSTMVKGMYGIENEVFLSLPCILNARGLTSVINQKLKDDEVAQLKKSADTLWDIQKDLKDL
Jurkat cell lysate proteome (Homo sapiens, UniProt P37802), sequence (P37802 whole entry): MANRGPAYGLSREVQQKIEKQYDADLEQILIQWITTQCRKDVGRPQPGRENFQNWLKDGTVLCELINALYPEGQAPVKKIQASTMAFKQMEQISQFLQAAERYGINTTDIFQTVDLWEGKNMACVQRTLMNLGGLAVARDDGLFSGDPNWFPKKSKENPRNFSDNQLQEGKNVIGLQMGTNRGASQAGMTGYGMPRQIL
Jurkat cell lysate proteome (Homo sapiens, UniProt P62318), sequence (P62318 whole entry): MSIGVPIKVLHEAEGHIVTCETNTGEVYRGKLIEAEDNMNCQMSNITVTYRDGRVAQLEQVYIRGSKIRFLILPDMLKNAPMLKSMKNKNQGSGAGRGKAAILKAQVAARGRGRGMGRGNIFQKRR
Jurkat cell lysate proteome (Homo sapiens, UniProt P49773), sequence (P49773 whole entry): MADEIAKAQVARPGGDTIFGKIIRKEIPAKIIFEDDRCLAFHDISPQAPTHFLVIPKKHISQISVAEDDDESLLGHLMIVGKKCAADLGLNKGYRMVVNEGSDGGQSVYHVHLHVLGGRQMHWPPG
Jurkat cell lysate proteome (Homo sapiens, UniProt Q14108), sequence (Q14108 whole entry): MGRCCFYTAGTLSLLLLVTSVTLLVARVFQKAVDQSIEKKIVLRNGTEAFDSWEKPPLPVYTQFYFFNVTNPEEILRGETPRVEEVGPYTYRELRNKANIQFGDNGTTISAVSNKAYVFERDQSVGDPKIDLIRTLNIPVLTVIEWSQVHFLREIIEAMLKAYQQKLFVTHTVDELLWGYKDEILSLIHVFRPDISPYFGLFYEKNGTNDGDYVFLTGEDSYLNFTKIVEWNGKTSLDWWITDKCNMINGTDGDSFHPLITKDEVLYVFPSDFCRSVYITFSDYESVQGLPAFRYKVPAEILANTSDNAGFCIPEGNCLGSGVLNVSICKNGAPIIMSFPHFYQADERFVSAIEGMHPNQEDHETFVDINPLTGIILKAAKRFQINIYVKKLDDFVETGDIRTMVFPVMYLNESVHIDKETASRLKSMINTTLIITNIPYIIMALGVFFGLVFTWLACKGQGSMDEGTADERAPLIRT
Jurkat cell lysate proteome (Homo sapiens, UniProt O43924), sequence (O43924 whole entry): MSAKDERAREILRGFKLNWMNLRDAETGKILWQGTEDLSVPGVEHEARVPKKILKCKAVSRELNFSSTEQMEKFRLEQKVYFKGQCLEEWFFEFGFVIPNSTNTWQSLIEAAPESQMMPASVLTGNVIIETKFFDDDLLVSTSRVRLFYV

## Cc1ccc(-n2nc3c(=O)n(CCCCS(=O)(=O)N(CCc4cccc(CCBr)c4)CC4CCNCC4)nc(C)c3c2C)cc1 [6a]
[1]; 10 µM, 15 min
  ΔAUC SNRPD3: -2
  ΔI67°C SNRPD3: -9 ± 11%
[1]; read-out: ΔTm SNRPD3, 10 µM, 15 min
  ΔTm at 10 µM: 0.8 ± 0.7 °C
[2]; 10 µM, 15 min
  ΔAUC FBL: -1.8
  ΔI67°C FBL: -1 ± 2%
[2]; read-out: ΔTm FBL, 10 µM, 15 min
  ΔTm at 10 µM: -1.8 ± 1.1 °C
[3]; 10 µM, 15 min
  ΔAUC TAGLN2: 1.4
  ΔI67°C TAGLN2: -5 ± 9%
[3]; read-out: ΔTm TAGLN2, 10 µM, 15 min
  ΔTm at 10 µM: 2.8 ± 0.7 °C
[4]; 10 µM, 15 min
  ΔAUC LDHB: -1.8
  ΔI67°C LDHB: -1 ± 4%
[4]; read-out: ΔTm LDHB, 10 µM, 15 min
  ΔTm at 10 µM: -2.9 ± 0.7 °C
[5]; 10 µM, 15 min
  ΔI67°C SCARB2: -14 ± 4%
[5]; read-out: ΔTm SCARB2, 10 µM, 15 min
  ΔTm at 10 µM: 0.7 ± 2.1 °C
[6]
  ΔI67°C PDE6D: 21 ± 7%
[7]; 10 µM, 15 min
  ΔAUC DGUOK: -2.3
  ΔI67°C DGUOK: 0 ± 2%
[7]; read-out: ΔTm DGUOK, 10 µM, 15 min
  ΔTm at 10 µM: -2.9 ± 1.9 °C
[8]; 10 µM, 15 min
  ΔAUC HINT1: 3.6
  ΔI67°C HINT1: 3 ± 6%
[8]; read-out: ΔTm HINT1, 10 µM, 15 min
  ΔTm at 10 µM: 4 ± 1.4 °C
[9]; 10 µM, 15 min
  ΔAUC SORT1: -3.6
  ΔI67°C SORT1: -16 ± 7%
[9]; read-out: ΔTm SORT1, 10 µM, 15 min
  ΔTm at 10 µM: -2.2 ± 2.4 °C
[10]; 10 µM, 15 min
  ΔAUC RPL31: -2.5
  ΔI67°C RPL31: -6 ± 5%
[10]; read-out: ΔTm RPL31, 10 µM, 15 min
  ΔTm at 10 µM: -2.1 ± 0.6 °C
[11]; 10 µM, 15 min
  ΔAUC ACP1: 2.1
  ΔI67°C ACP1: 0 ± 4%
[11]; read-out: ΔTm ACP1, 10 µM, 15 min
  ΔTm at 10 µM: 2.3 ± 0.3 °C
